In PubChem BioAssay AID602328 (NMMLSC, 2012) one finds IC50 data, which are given here for two compounds.

The assay has as its target Botulinum neurotoxin type A (Clostridium botulinum (strain Hall / ATCC 3502 / NCTC 13319 / Type A)) (UniProt P0DPI1). Nature of the assay: inhibition of botulinum toxin A LC cleavage – biochemical, multiplex microsphere flow cytometry, cherry pick 02, dose response (AID 602328). The conditions noted are these: BoNT/A LC substrate cleavage.

Active and inactive are the calls of the source. How the calls were made is not given here. Bounds are passed on as bounds.

Botulinum neurotoxin type A (Clostridium botulinum (strain Hall / ATCC 3502 / NCTC 13319 / Type A)), sequence (P0DPI1 whole entry, looked up): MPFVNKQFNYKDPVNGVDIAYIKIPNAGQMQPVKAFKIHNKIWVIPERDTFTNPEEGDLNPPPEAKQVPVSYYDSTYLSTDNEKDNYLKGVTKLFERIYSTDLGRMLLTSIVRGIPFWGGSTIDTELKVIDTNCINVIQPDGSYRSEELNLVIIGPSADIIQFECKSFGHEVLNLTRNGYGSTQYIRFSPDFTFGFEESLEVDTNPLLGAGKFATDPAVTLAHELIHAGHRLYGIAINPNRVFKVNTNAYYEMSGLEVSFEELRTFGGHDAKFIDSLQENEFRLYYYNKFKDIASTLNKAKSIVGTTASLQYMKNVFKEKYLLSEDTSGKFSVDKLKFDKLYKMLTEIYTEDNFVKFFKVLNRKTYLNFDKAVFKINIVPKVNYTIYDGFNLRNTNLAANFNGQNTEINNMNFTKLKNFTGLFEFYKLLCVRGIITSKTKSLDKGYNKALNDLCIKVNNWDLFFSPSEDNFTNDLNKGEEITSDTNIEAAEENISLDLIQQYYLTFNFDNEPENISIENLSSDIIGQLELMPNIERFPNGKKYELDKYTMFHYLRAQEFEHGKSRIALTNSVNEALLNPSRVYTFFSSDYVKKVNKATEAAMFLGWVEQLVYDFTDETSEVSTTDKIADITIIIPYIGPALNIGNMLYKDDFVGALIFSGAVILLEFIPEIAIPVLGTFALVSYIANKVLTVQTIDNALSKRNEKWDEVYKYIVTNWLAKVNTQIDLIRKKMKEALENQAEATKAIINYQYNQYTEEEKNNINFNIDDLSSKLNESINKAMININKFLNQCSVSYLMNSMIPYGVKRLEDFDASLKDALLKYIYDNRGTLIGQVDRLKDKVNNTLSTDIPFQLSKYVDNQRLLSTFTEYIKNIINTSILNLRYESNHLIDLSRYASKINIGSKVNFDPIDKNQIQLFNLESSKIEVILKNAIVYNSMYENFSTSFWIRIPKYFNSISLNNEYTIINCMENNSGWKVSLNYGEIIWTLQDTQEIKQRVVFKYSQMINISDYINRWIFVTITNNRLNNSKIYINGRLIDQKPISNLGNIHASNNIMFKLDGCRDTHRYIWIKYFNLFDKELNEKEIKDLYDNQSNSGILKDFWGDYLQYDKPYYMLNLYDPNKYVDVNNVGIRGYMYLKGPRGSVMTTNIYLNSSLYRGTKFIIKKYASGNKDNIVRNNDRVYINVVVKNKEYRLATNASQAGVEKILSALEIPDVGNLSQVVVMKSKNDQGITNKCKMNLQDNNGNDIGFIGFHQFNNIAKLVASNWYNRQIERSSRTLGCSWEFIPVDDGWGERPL

Turning to `O=c1c(/C=C(\O)c2ccccc2)nc2ccccc2n1-c1ccccc1`, the IC50 was > 20 µM (inactive). The result for `Oc1[nH]c(N=C2N=c3ccccc3=N2)c2ccccc12` reads > 20 µM (inactive).
